According to patent US10047067B2, “Composition for treating kidney disease comprising pyrazole derivative” (Ewha University-Industry Collaboration Foundation, priority 2012, dated 2018):

System: collagen Iα1 expression in proximal tubular cells (mProx24)
Test: Inhibitory effect on collagen Iα1 expression in proximal tubular cells (hTGF-β1 stimulated, real-time PCR)
Format: cell-based
Details: Mus musculus
Protocol: mProx24, which is a name of the proximal tubular cells derived from proximal tubule segments obtained by finely sectioning the kidney of adult C57BL6/J mice, was granted from Professor Sugaya, St. Marianna University School of Medicine, Kanagawa, Japan. mProx24 was cultured in DMEM (Dulbecco's modified Eagle's medium) supplemented with 10% fetal calf serum (FCS, Gibco), 100 U/ml penicillin, 100 μg/ml streptomycin, and 44 mM NaHCO3 at 37° C. in a 5% CO2 atmosphere. For quantitation of RNA expression, the cells were cultured in 6-well plates. When the cells grew 90% confluent, the medium was changed with a fresh 0.15% FCS (Gibco)-supplemented DMEM. Incubation in this medium for 24 hrs halted the cell growth to synchronize the growth cycle in the cells. Compounds of Examples 1 to 9 and Comparative Example were respectively dissolved in DMSO (dimethylsulfoxide) to form a concentration of 50 mM, and subjected to serial dilution to 10 mM, 1 mM, 0.1 mM, and 0.01 mM. 10 mM, 1 mM, 0.1 mM, and 0.01 mM solutions of each of the compounds of Examples 1 to 9 and Comparative Example were 1,000-fold diluted in 0.15% FCS (Gibco)-supplemented DMEM to form final concentrations of 10 μM, 1 μM, 0.1 μM, and 0.01 μM, respectively. In addition, 0 μM (DMSO 1 μL) was used. The cells were incubated for 1 hr in the dilutions and then for 6 hrs in the presence of 5 ng/ml recombinant human transforming growth factor-β1 (hTGF-β1, R&D Systems). For the control, hTGF-β1 was not used. Total RNA was extracted from mProx24 using Trizol (Invitrogen). For quantitation of mRNA expression, a reaction volume of 20 μL including cDNA transcripts, primer pairs, and SYBR Green PCR Master Mix (Applied Biosystems) was subjected to real-time PCR with the aid of StepOnePlus (Applied Biosystems) (real-time PCR condition: 95° C., 10 min→40 thermal cycles of denaturation at 95° C. for 15 sec and primer annealing at 60° C. for 1 min→95° C. for 15 sec, 60° C. for 1 min, and 95° C. for 15 sec to measure a melting curve). Quantitation was normalized to 18S rRNA expression level. A pair of primers for mouse collagen Iα1 were 5′-[…]-3′(SEQ ID NO: 13) and 5′-[…]-3′ (SEQ ID NO: 14). Forward and reverse primers for mouse r18S rRNA were 5′-CGAAAGCATTTGCCAAGAAT-3′ (SEQ ID NO: 11) and 5′-AGTCGGCATCGTTTATGGTC-3′ (SEQ ID NO: 12), respectively.
Experiment results are given in Tables 3 to 12 and FIGS. 4 to 13. Tables 3 to 12 and FIGS. 4 to 13 show inhibitory effects of the compounds of Examples 1 to 9 and Comparative Example 1 on collagen Iα1 expression in proximal tubular cells.
Data of Tables 3 to 12 and FIGS. 4 to 13 are measurements of experiments repeated three to five times for each concentration, and are expressed as mean±standard error (SE). Statistic comparison among the groups was analyzed by ANOVA and Fisher's least significant difference test, with significance at p<0.05. *P<0.05 vs. WT, †P<0.05 vs. DM.
In Tables 3 to 12, mean values of expression level ratios of collagen Iα1 (Col1α) to 18S rRNA (18S), and % inhibition against collagen Iα1 expression for each group are shown, together with IC50 value (μM). In this regard, % inhibition means relative inhibition to 100% for the control and 0% for the group that was treated with hTGF-β1 but not with any of the compounds of Examples or Comparative Example.

Structure (SMILES): CCCc1c(-c2ccccc2)nn(-c2ccccn2)c1O.Cl [Compound 18-278, 1-(pyridin-2-yl)-3-phenyl-4-propyl-1H-pyrazol-5-ol.HCl]
- mrna remaining at 0.01 µM (Col1, 0.01 μM compound, mProx24, 5 ng/ml hTGF-β1 6 hrs, relative to hTGF-β1 alone = 1, read-out: Mean expression level ratio of collagen Iα1 (Col1α) to 18S rRNA): 82.1%
- mrna remaining at 0.1 µM (Col1, 0.1 μM compound, mProx24, 5 ng/ml hTGF-β1 6 hrs, relative to hTGF-β1 alone = 1, read-out: Mean expression level ratio of collagen Iα1 (Col1α) to 18S rRNA): 70.1%
- mrna remaining at 1 µM (Col1, 1 μM compound, mProx24, 5 ng/ml hTGF-β1 6 hrs, relative to hTGF-β1 alone = 1, read-out: Mean expression level ratio of collagen Iα1 (Col1α) to 18S rRNA): 51.6%
- mrna remaining at 10 µM (Col1, 10 μM compound, mProx24, 5 ng/ml hTGF-β1 6 hrs, relative to hTGF-β1 alone = 1, read-out: Mean expression level ratio of collagen Iα1 (Col1α) to 18S rRNA): 36.9%
- inhibition at 0.01 µM (0.01 μM compound, mProx24, 100% = control without hTGF-β1, 0% = hTGF-β1 alone, read-out: expression inhibition rate (collagen Iα1)): 20%
- inhibition at 0.1 µM (0.1 μM compound, mProx24, 100% = control without hTGF-β1, 0% = hTGF-β1 alone, read-out: expression inhibition rate (collagen Iα1)): 33.5%
- inhibition at 1 µM (1 μM compound, mProx24, 100% = control without hTGF-β1, 0% = hTGF-β1 alone, read-out: expression inhibition rate (collagen Iα1)): 54.2%
- inhibition at 10 µM (10 μM compound, mProx24, 100% = control without hTGF-β1, 0% = hTGF-β1 alone, read-out: expression inhibition rate (collagen Iα1)): 70.7%
- IC50 (mProx24, hTGF-β1 stimulated, read-out: IC50 (inhibition of collagen Iα1 expression)): 742 nM
